Reference: paper PMC2764408 (Biochemistry, 2008)

Legend:
Assay type in all cases: binding
[1] = molecular target: T1, monomeric sarcosine oxidase (MSOX) (Bacillus sp. B-0618, UniProt P40859, K266R); assay: absorption spectral titration of charge transfer band
T1 sequence (P40859 2-390 K266R): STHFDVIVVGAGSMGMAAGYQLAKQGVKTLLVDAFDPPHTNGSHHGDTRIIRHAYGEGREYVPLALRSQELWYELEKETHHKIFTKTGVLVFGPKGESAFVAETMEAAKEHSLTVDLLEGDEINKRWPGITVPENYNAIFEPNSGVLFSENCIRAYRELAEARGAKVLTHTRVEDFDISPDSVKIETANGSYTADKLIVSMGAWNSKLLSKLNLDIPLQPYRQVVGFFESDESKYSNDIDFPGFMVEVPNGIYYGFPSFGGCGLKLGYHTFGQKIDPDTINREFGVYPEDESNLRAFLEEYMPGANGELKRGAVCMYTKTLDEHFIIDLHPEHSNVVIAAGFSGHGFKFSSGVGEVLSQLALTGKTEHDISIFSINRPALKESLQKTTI

[2] = molecular target: T2, monomeric sarcosine oxidase (MSOX) (Bacillus sp. B-0618, UniProt P40859, K266M); assay: as above
T2 sequence (P40859 2-390 K266M): T1 sequence (P40859 2-390 K266R)

[3] = molecular target: T2, monomeric sarcosine oxidase (MSOX); assay: stopped-flow diode array, initial charge transfer absorbance
[4] = molecular target: T1, monomeric sarcosine oxidase (MSOX); assay: as above

| SMILES | Kd [1] | Kd [2] | Kd [3] | Kd [4] |
| --- | --- | --- | --- | --- |
| CSCC(=O)O [methylthioacetate] | 6.9 ± 0.1 mM | 13.3 ± 0.3 mM | – | – |
| CNCC(=O)O [sarcosine, N-methylglycine] | – | – | 58 ± 10 mM | 34 ± 1 mM |
